Read-outs that look alike come from different tables or passages of the source.
Tests used:
VraR = VraR (Staphylococcus aureus, UniProt Q7A4R9); experiment: biochemical; assay type: binding; settings: His-tagged VraR; NB = No Binding
[1] = target: cytoplasmic domain of VraS (VraS-C) (Staphylococcus aureus, UniProt Q99SZ7); experiment: biochemical; assay type: binding; settings: for Kd: NB = No Binding, read-out: KD VraS
[2] = target: PurC (unrelated protein, control) (Bacillus anthracis, UniProt Q81ZH5); assay type: binding; settings: read-out: KD PurC (control)
Sequence of PurC (unrelated protein, control) (Q81ZH5 whole entry, looked up): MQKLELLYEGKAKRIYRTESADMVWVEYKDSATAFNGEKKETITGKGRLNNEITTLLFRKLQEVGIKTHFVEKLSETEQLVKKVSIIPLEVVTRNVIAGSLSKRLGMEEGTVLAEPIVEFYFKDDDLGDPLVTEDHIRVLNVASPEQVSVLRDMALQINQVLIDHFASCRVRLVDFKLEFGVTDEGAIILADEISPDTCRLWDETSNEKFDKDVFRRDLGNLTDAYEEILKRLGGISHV

[3] = test system: test strain (923 pPvra-lux); experiment: Growth inhibition by compound alone (maximum non-growth-inhibitory concentration); assay type: cell-based, Staphylococcus aureus; settings: compound alone; maximum concentration where it did NOT inhibit growth
[4] = test system: test strain 923 pPvra-lux; experiment: Secondary screen / synergy confirmation of Top 40, relative growth with oxacillin; assay type: cell-based, Staphylococcus aureus; settings: Top 40 library, compound at maximum non-GI conc
Protocol: In the secondary screen each microtiter plate contained either cells in TSB alone (16 replicates), cells with oxacillin (2 μg/mL, 31 replicates), or cells with test compound and oxacillin (2 μg/mL, 49 wells). Each compound was assayed in four separate biological replicates.
Synergy Confirmation of “Top 40”. […]

[5] = test system: vraSR promoter (Pvra-lux reporter in strain 923); assay type: cell-based, Staphylococcus aureus; settings: for RL Ox avg: Top 40 library, with oxacillin, compound at maximum non-GI conc; for vraSR repressing synergist: overall class from syn and rep
Protocol: In the secondary screen each microtiter plate contained either cells in TSB alone (16 replicates), cells with oxacillin (2 μg/mL, 31 replicates), or cells with test compound and oxacillin (2 μg/mL, 49 wells). Each compound was assayed in four separate biological replicates. […]

[6] = test system: vraSR promoter (Pvra-lux reporter in strain 923); experiment: Primary screen, relative luminescence (vraSR expression)
multiple strains of MRSA = experiment: MICs (minimal inhibitory concentrations) vs multiple strains of MRSA; assay type: cell-based, Staphylococcus aureus
[7] = test system: test strain 923 pPvra-lux (USA300 MRSA); experiment: Primary screen, relative growth in presence of oxacillin; settings: compound 10 μM with oxacillin 2 μg/mL, absorbance 24 h, <0.50 = dead cells = hit
[8] = primary screen, compound 10 μM with oxacillin 2 μg/mL, <0.50 = vraSR repressed = hit
[9] = isolate 923, SCCmec IV, ST 8, compound at 4 mg/L
[10] = isolate 1176, SCCmec II, ST 231, compound at 4 mg/L
[11] = isolate 2169, SCCmec IV, ST 72, compound at 4 mg/L
[12] = isolate 8004-01, SCCmec III, ST 239, compound at 4 mg/L
[13] = isolate 8010-01, SCCmec IV, ST 8, compound at 4 mg/L
[14] = isolate 8227-01, SCCmec IV, ST 87, compound at 4 mg/L
[15] = isolate 11095, SCCmec II, ST 105, compound at 4 mg/L
[16] = isolate 13113, SCCmec II, ST 5, compound at 4 mg/L
[17] = isolate 13354, SCCmec IV, ST 5, compound at 4 mg/L
[18] = isolate 14315, SCCmec IV, ST 1, compound at 4 mg/L
[19] = isolate Q2461, SCCmec VT, ST 59, compound at 4 mg/L
[20] = isolate 923, SCCmec IV, ST 8, compound at 2 mg/L
[21] = isolate 1176, SCCmec II, ST 231, compound at 2 mg/L
[22] = isolate 2169, SCCmec IV, ST 72, compound at 2 mg/L
[23] = isolate 8004-01, SCCmec III, ST 239, compound at 2 mg/L
[24] = isolate 8010-01, SCCmec IV, ST 8, compound at 2 mg/L
[25] = isolate 8227-01, SCCmec IV, ST 87, compound at 2 mg/L
[26] = isolate 11095, SCCmec II, ST 105, compound at 2 mg/L
[27] = isolate 13113, SCCmec II, ST 5, compound at 2 mg/L
[28] = isolate 13354, SCCmec IV, ST 5, compound at 2 mg/L
[29] = isolate 14315, SCCmec IV, ST 1, compound at 2 mg/L
[30] = isolate Q2461, SCCmec VT, ST 59, compound at 2 mg/L

Sequence of VraR (Q7A4R9 whole entry, the tested form may be a part): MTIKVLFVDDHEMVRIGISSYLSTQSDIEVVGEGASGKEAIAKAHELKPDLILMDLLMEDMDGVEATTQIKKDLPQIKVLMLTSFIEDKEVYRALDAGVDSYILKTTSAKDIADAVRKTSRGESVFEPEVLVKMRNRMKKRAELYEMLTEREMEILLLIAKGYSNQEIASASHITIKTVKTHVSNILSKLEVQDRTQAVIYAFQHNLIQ
Sequence of cytoplasmic domain of VraS (VraS-C) (Q99SZ7 70-347): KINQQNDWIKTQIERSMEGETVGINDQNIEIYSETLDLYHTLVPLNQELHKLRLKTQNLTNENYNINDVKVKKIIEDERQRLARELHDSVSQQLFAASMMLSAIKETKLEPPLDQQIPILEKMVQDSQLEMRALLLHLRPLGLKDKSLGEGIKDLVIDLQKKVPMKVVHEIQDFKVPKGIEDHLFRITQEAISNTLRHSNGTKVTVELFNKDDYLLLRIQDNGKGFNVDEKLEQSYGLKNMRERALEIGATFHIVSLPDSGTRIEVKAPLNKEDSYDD

O=C(Nc1nnc(-c2ccc3c(c2)CCCC3)o1)c1nc2ccccc2s1 [F0608-0570]
Kd (VraR): > 100 µM | Kd ([1]; new run with His-tagged VraS): > 100 µM | Kd [2]: > 100 µM

CC(C)(C)c1csc(NC(=O)c2cccc(NS(=O)(=O)c3ccc(F)cc3)c2)n1 [F2619-0556]
maximum non-GI conc [3]: 400 µg/mL | RG Ox avg [4]: 0.01 | RL Ox avg [5]: 0.28 | vraSR repressing synergist [5]: 1. confirmed | RL avg (relative luminescence) [6, 8]: 0.52 | Ox MIC in presence of compound (multiple strains of MRSA; [9]): <0.25 mg/L | Ox MIC in presence of compound (multiple strains of MRSA; [10]): <0.5 mg/L | Ox MIC in presence of compound (multiple strains of MRSA; [11]): <0.25 mg/L | Ox MIC in presence of compound (multiple strains of MRSA; [12]): <4 mg/L | Ox MIC in presence of compound (multiple strains of MRSA; [13]): <0.25 mg/L | Ox MIC in presence of compound (multiple strains of MRSA; [14]): <0.06 mg/L | Ox MIC in presence of compound (multiple strains of MRSA; [15]): 128 mg/L | Ox MIC in presence of compound (multiple strains of MRSA; [16]): <0.13 mg/L | Ox MIC in presence of compound (multiple strains of MRSA; [17]): <0.13 mg/L | Ox MIC in presence of compound (multiple strains of MRSA; [18]): <0.5 mg/L | Ox MIC in presence of compound (multiple strains of MRSA; [19]): 1 mg/L | RG avg (relative growth) [7]: 0.25

O=C(Nc1nnc(-c2ccccc2Cl)o1)c1cccc(Oc2ccccc2)c1 [F1374-0081]
Kd (VraR): > 100 µM | Kd ([1]; new run with His-tagged VraS): > 100 µM | Kd [2]: > 100 µM

Cc1cc2c(C(C)C)c(O)c(O)c(C=O)c2c(O)c1-c1c(C)cc2c(C(C)C)c(O)c(O)c(C=O)c2c1O [Gos, Gossypol, reference compound]
Kd (VraR): > 100 µM | Kd ([1]; new run with His-tagged VraS): > 100 µM

COc1cccc(-c2nnc(NC(=O)c3cccc(F)c3)o2)c1 [F1374-0327]
Kd (VraR): > 100 µM | Kd ([1]; new run with His-tagged VraS): > 100 µM | Kd [2]: > 100 µM

O=C(Nc1ccc(Cl)c(Cl)c1)Nc1ccc2cn[nH]c2c1 [F5882-3050]
maximum non-GI conc [3]: 400 µg/mL | RG Ox avg [4]: 0.02 | RL Ox avg [5]: 0.07 | vraSR repressing synergist [5]: 1. confirmed | RL avg (relative luminescence) [6, 8]: 0.25 | Ox MIC in presence of compound (multiple strains of MRSA; [20]): <0.25 mg/L | Ox MIC in presence of compound (multiple strains of MRSA; [21]): <0.5 mg/L | Ox MIC in presence of compound (multiple strains of MRSA; [22]): <0.25 mg/L | Ox MIC in presence of compound (multiple strains of MRSA; [23]): 32 mg/L | Ox MIC in presence of compound (multiple strains of MRSA; [24]): <0.25 mg/L | Ox MIC in presence of compound (multiple strains of MRSA; [25]): <0.06 mg/L | Ox MIC in presence of compound (multiple strains of MRSA; [26]): <2 mg/L | Ox MIC in presence of compound (multiple strains of MRSA; [27]): <0.13 mg/L | Ox MIC in presence of compound (multiple strains of MRSA; [28]): <0.13 mg/L | Ox MIC in presence of compound (multiple strains of MRSA; [29]): <0.5 mg/L | Ox MIC in presence of compound (multiple strains of MRSA; [30]): 0.5 mg/L | RG avg (relative growth) [7]: 0.39

O=C(Nc1nnc(-c2ccccc2Cl)o1)c1nc2ccccc2s1 [F1374-0033]
Kd (VraR): > 100 µM | binding to VraS-C ([1]; SPR): bound | RUmax VraS ([1]; new run with His-tagged VraS): 64.3 ± 5.4 | Kd ([1]; new run with His-tagged VraS): 19.6 ± 4.4 µM | Kd [2]: > 100 µM

Fc1cccc(Nc2nc(Nc3ccc(F)c(Cl)c3)nc(N3CCOCC3)n2)c1 [F2703-0396]
maximum non-GI conc [3]: 400 µg/mL | RG Ox avg [4]: 0.01 | RL Ox avg [5]: 0.34 | vraSR repressing synergist [5]: 1. confirmed | RL avg (relative luminescence) [6, 8]: 0.19 | Ox MIC in presence of compound (multiple strains of MRSA; [20]): <0.25 mg/L | Ox MIC in presence of compound (multiple strains of MRSA; [21]): <0.5 mg/L | Ox MIC in presence of compound (multiple strains of MRSA; [22]): <0.25 mg/L | Ox MIC in presence of compound (multiple strains of MRSA; [23]): 64 mg/L | Ox MIC in presence of compound (multiple strains of MRSA; [24]): <0.25 mg/L | Ox MIC in presence of compound (multiple strains of MRSA; [25]): <0.06 mg/L | Ox MIC in presence of compound (multiple strains of MRSA; [26]): <2 mg/L | Ox MIC in presence of compound (multiple strains of MRSA; [27]): <0.13 mg/L | Ox MIC in presence of compound (multiple strains of MRSA; [28]): <0.13 mg/L | Ox MIC in presence of compound (multiple strains of MRSA; [29]): <0.5 mg/L | Ox MIC in presence of compound (multiple strains of MRSA; [30]): <0.13 mg/L | RG avg (relative growth) [7]: 0.06

Cc1ccc(C)c(-c2nnc(NC(=O)c3cc(Cl)sc3Cl)o2)c1 [F2518-0360]
Kd (VraR): > 100 µM | Kd ([1]; new run with His-tagged VraS): > 100 µM | Kd [2]: > 100 µM

O=C(Nc1nnc(-c2ccc(Br)cc2)o1)c1sc2ccccc2c1Cl [F2518-0484]
Kd (VraR): > 100 µM | Kd ([1]; new run with His-tagged VraS): > 100 µM | Kd [2]: > 100 µM

O=C(Nc1nnc(-c2ccc(F)cc2)o1)c1nc2ccccc2s1 [F1374-0138]
Kd (VraR): > 100 µM | Kd ([1]; new run with His-tagged VraS): > 100 µM | Kd [2]: > 100 µM

Oc1ccc(C2(c3cccc(Br)c3)CCCCC2)cc1 [F0020-1560]
maximum non-GI conc [3]: 40 µg/mL | RG Ox avg [4]: 0.68 | RL Ox avg [5]: 0.17 | vraSR repressing synergist [5]: 2. possible | RL avg (relative luminescence) [6, 8]: −0.01 | Ox MIC in presence of compound (multiple strains of MRSA; isolate 923, SCCmec IV, ST 8, compound at 1 mg/L): 1 mg/L | Ox MIC in presence of compound (multiple strains of MRSA; isolate 1176, SCCmec II, ST 231, compound at 1 mg/L): <0.5 mg/L | Ox MIC in presence of compound (multiple strains of MRSA; isolate 2169, SCCmec IV, ST 72, compound at 1 mg/L): 1 mg/L | Ox MIC in presence of compound (multiple strains of MRSA; isolate 8004-01, SCCmec III, ST 239, compound at 1 mg/L): <4 mg/L | Ox MIC in presence of compound (multiple strains of MRSA; isolate 8010-01, SCCmec IV, ST 8, compound at 1 mg/L): 1 mg/L | Ox MIC in presence of compound (multiple strains of MRSA; isolate 8227-01, SCCmec IV, ST 87, compound at 1 mg/L): 0.25 mg/L | Ox MIC in presence of compound (multiple strains of MRSA; isolate 11095, SCCmec II, ST 105, compound at 1 mg/L): <2 mg/L | Ox MIC in presence of compound (multiple strains of MRSA; isolate 13113, SCCmec II, ST 5, compound at 1 mg/L): <0.13 mg/L | Ox MIC in presence of compound (multiple strains of MRSA; isolate 13354, SCCmec IV, ST 5, compound at 1 mg/L): <0.13 mg/L | Ox MIC in presence of compound (multiple strains of MRSA; isolate 14315, SCCmec IV, ST 1, compound at 1 mg/L): <0.5 mg/L | Ox MIC in presence of compound (multiple strains of MRSA; isolate Q2461, SCCmec VT, ST 59, compound at 1 mg/L): 4 mg/L | RG avg (relative growth) [7]: 0.02

Cc1ccc(S(=O)(=O)Nc2ccccc2C(=O)Nc2nc3c(C)ccc(C)c3s2)cc1 [F1813-0712]
maximum non-GI conc [3]: 400 µg/mL | RG Ox avg [4]: 0.71 | RL Ox avg [5]: 0.20 | vraSR repressing synergist [5]: 2. possible | RL avg (relative luminescence) [6]: 0.00 | Ox MIC in presence of compound (multiple strains of MRSA; [9]): 4 mg/L | Ox MIC in presence of compound (multiple strains of MRSA; [10]): 16 mg/L | Ox MIC in presence of compound (multiple strains of MRSA; [11]): 8 mg/L | Ox MIC in presence of compound (multiple strains of MRSA; [12]): 512 mg/L | Ox MIC in presence of compound (multiple strains of MRSA; [13]): 16 mg/L | Ox MIC in presence of compound (multiple strains of MRSA; [14]): 0.5 mg/L | Ox MIC in presence of compound (multiple strains of MRSA; [15]): 256 mg/L | Ox MIC in presence of compound (multiple strains of MRSA; [16]): 16 mg/L | Ox MIC in presence of compound (multiple strains of MRSA; [17]): 8 mg/L | Ox MIC in presence of compound (multiple strains of MRSA; [18]): 16 mg/L | Ox MIC in presence of compound (multiple strains of MRSA; [19]): 16 mg/L | RG avg (relative growth) [7]: −0.01
